From patent publication US20260092300A1, “MINIMUM INHIBITORY CONCENTRATION RECOGNITION METHOD, APPARATUS AND DEVICE, AND STORAGE MEDIUM” (AUTOBIO LABTEC INSTRUMENTS CO., LTD., priority 2022, published 2026)
Values after ≈ are worked out from the molar mass of the structure shown.

Assays:
Type in all cases: cell-based
[1] = test system: ATCC25922 Escherichia coli; assay: Broth microdilution test (BMD); settings: clinical gold standard broth microdilution test
[2] = test system: ATCC25922 Escherichia coli; assay: MIC determined by the method (lensless imaging, Siamese neural network image similarity); settings: incubation 2 hours to 4 hours at 37±2° C.
From the text: (§1) The antimicrobial susceptibility test plate is a commonly used experimental equipment in antimicrobial susceptibility tests, which consists of multiple regularly arranged microwells. In practice, the antimicrobial susceptibility test plate is of different specifications, generally including a 96-well plate and a 128-well plate. In the implementation, the operator first prepares the bacterial suspension of a sample (that is, the to-be-tested bacterial strain); opens an antibiotic-coated antimicrobial susceptibility test plate, of which the microwells are pre-coated with the to-be-tested antibiotic with different gradient concentrations (that is, the preset gradient concentrations), where the concentration gradients of the antibiotic may be designed according to the rules of the clinical laboratory standard institute; adds the bacterial suspension to the microwells via a sample loading well; and places the antimicrobial susceptibility test plate on the imaging platform upon completing the sample loading. The processor controls the imaging platform to perform lensless imaging on the microwells at an initial time instant immediately after the sample is added (that is, the time instant of not completing inhibition) and a time instant immediately after the preset incubation time period (that is, the time instant of completing bacteria inhibition) and saves the data, so as to obtain the testing images and the test control images of the to-be-tested bacterial strain. Alternatively, the processor performs lensless imaging on the microwells and the control microwells at the time instant immediately after the preset incubation time period and saves the data.
(§2) For example, the determination result of the minimum inhibitory concentrations of two commonly used clinical quality control strains (ATCC25922 Escherichia coli and ATCC25923 Staphylococcus aureus) through the method according to the embodiments validates the feasibility of the method. Preparation of the bacterial strain includes: sub-culturing the strain for the second to fourth generations for standby; selecting colonies to prepare a bacterial suspension with a McFarland 0.5 standard; pre-coating antibiotic in the microwells of the antimicrobial susceptibility test plate (the concentration of the antibiotic is prepared according to CLSI standard); mixing the bacterial suspension with agarose at a concentration of 0.6% to 1.0% and a temperature of 37° C. to 40° C. in a dilution ratio of 1:300 to 1:500; adding the mixture sample respectively to the microwells by centrifugation; and then placing the antimicrobial susceptibility test plate in an incubator (37±2° C.) to incubate for 2 hours to 4 hours. Data collection includes: when the incubation is completed, placing the antimicrobial susceptibility test plate on the lensless imaging platform to take the images of the wells (that is, microwells) and recording the images corresponding to different antibiotic concentrations, where the minimum inhibitory concentration (MIC) determined by using the method in the embodiments is obtained based on the images. As shown in Table 1 and Table 2, it can be seen from the MIC results determined through the method and antimicrobial susceptibility results of the clinical gold standard broth microdilution test (BMD) that the MIC results determined through the method according to the embodiment are more accurate and reliable, and the MIC results are determined in 2 hours to 4 hours through the method according to the embodiment, which is more efficient.

[3] = test system: ATCC25923 Staphylococcus aureus; assay: as above; settings: incubation 2 hours to 4 hours at 37±2° C.
From the text: as §1, §2

[4] = test system: ATCC25923 Staphylococcus aureus; assay: Broth microdilution test (BMD); settings: clinical gold standard broth microdilution test

Compound	MIC [1]	MIC [2]	MIC [3]	MIC [4]	BMD (MIC) [1]	The method (MIC) [2]
NCC[C@H](O)C(=O)N[C@@H]1C[C@H](N)[C@@H](O[C@H]2O[C@H](CN)[C@@H](O)[C@H](O)[C@H]2O)[C@H](O)[C@H]1O[C@H]1O[C@H](CO)[C@@H](O)[C@H](N)[C@H]1O [Amikacin]	1 to 4 µg/mL (≈ 1.71 to 6.83 µM)	4 µg/mL (≈ 6.83 µM)				
CC1(C)S[C@@H]2[C@H](NC(=O)[C@H](N)c3ccccc3)C(=O)N2[C@H]1C(=O)O [Ampicillin]	4 µg/mL (≈ 11.4 µM)	4 µg/mL (≈ 11.4 µM)	1 µg/mL (≈ 2.86 µM)	1 µg/mL (≈ 2.86 µM)		
CO[C@@]1(NC(=O)Cc2cccs2)C(=O)N2C(C(=O)O)=C(COC(N)=O)CS[C@@H]21 [Cefoxitin]	2 to 4 µg/mL (≈ 4.68 to 9.36 µM)	1 µg/mL (≈ 2.34 µM)	4 µg/mL (≈ 9.36 µM)	1 to 4 µg/mL (≈ 2.34 to 9.36 µM)		
CC[C@H]1OC(=O)[C@H](C)[C@@H](O[C@H]2C[C@@](C)(OC)[C@@H](O)[C@H](C)O2)[C@H](C)[C@@H](O[C@@H]2O[C@H](C)C[C@H](N(C)C)[C@H]2O)[C@](C)(O)C[C@@H](C)C(=O)[C@H](C)[C@@H](O)[C@]1(C)O [Erythromycin]			0.5 µg/mL (≈ 0.681 µM)	0.25 to 0.5 µg/mL (≈ 0.341 to 0.681 µM)		
C[C@@H](O)[C@H]1C(=O)N2C(C(=O)O)=C(SCCN=CN)C[C@H]12 [Imipenem]	0.06 to 0.25 µg/mL (≈ 0.2 to 0.835 µM)	0.12 µg/mL (≈ 0.401 µM)				
Gentamycin					0.25 to 0.5 µg/mL	0.25 µg/mL
